This assay concerns H1N1 A/PR/8-MC/1934. Also noted: species or system BALB/c female mice. As to conditions: mouse, in vivo.

One compound from patent US10538554B2, “Peptides and uses therefor as antiviral agents” (priority 2015, dated 2020) can be followed below.

Bridge positions count the residues as written; N and C are the ends. Square brackets hold non-standard residues; d marks the D form. Peptide text beside a SMILES is read from it.

Regarding `CC[C@@H](C)[C@H]1NC(=O)[C@@H](Cc2ccccc2)NC(=O)[C@@H]([C@H](C)O)NC(=O)[C@@H](Cc2ccccc2)NC(=O)[C@@H](Cc2c[nH]c3ccccc23)NC(=O)[C@@H]([C@H](C)O)NC(=O)[C@H](NC(=O)[C@H](CCCCN)NC(=O)[C@H](CCCCN)NC(=O)[C@H](CCCNC(=N)N)NC(=O)[C@@H](N)CCCNC(=N)N)CSSC[C@H](C(=O)O)NC(=O)[C@@H](CC(N)=O)NC1=O` [PSP IV A17, H-RRKKctwftfinc-OH] (H-RRKK[dC][dT][dW][dF][dT][dF][dI][dN][dC]-OH; disulfide 5-13), the “morbidity of influenza infected mice” value was “completely inhibited the morbidity”.
